Experimental data published in paper PMC2386552, “Toward the Assessment of Food Toxicity for Celiac Patients: Characterization of Monoclonal Antibodies to a Main Immunogenic Gluten Peptide” (PLoS ONE, 2008).

Columns and labels:
[1] = test system: G12 moAb; assay: Indirect ELISA of C-LYTAG-peptide fusions (E. coli extracts) with moAb G12; assay type: binding; conditions: indirect ELISA of bacterial extracts containing the fusion peptides
Text: (§1) To determine the epitope recognized by the G12 and A1 moAb within the 33-mer peptide, fusions of the C-LYTAG coding sequence of the pALEXb plasmid (Biomedal S.L., Sevilla, Spain) were constructed with coding sequences of hepta- and octapeptides comprising the complete sequence of the 33-mer peptide (Figure 3A). The resulting plasmids were introduced by transformation into the REG1 strain of Escherichia coli, allowing for over-expression of the encoded fusion proteins upon induction (Biomedal S.L., Sevilla, Spain). The over-expressed bacterial extracts were analyzed by indirect ELISA using the anti-33-mer A1 and G12 moAbs. Similarly, the anti-C-LYTAG 6B5L1 moAb (Biomedal, S.L., Sevilla, Spain) was used to establish that the designed protein was expressed intact in all cases. […]
(§2) A Maxisorp microtiter plate (Nunc, Roskilde, Denmark) was coated overnight at 4°C with 100 µL/well of the appropriate antigen (C-LYTAG-33-mer protein, gliadin, hordein, secalin, avenin, oryzein, zein or soluble protein extracts containing peptide fusions) serially diluted with 0.1 M of Na2CO3-NaHCO3 (pH 9.6). […] Absorbance at 450 nm was measured in the microplate reader UVM340 (Asys Hitech GmbH, Eugendorf, Austria).

[2] = test system: A1 moAb; assay: Indirect ELISA of C-LYTAG-peptide fusions (E. coli extracts) with moAb A1; assay type: binding; conditions: indirect ELISA of bacterial extracts containing the fusion peptides
Text: as §1, §2

Substance | signal with G12 moAb [1] | signal with A1 moAb [2]
PQPQLPY [Pro63-Tyr69, C-LYTAG fusion peptide PQPQLPY expressed in E. coli] | positive signal | 
QLPYPQP [Gln66-Pro72, C-LYTAG fusion peptide QLPYPQP expressed in E. coli] |  | positive signal
QPQLPYP [Gln64-Pro70, C-LYTAG fusion peptide QPQLPYP expressed in E. coli] | positive signal | 
